Test results taken from ChEMBL document CHEMBL3217557, “Triazole-substituted N-hydroxyindol-2-carboxylates as inhibitors of isoform 5 of human lactate dehydrogenase (hLDH5)” (Medchemcomm, 2011).

Experiments:
[1] = target: T1, L-lactate dehydrogenase A chain (Homo sapiens, UniProt P00338); assay: Inhibition of human LDHA4 using sodium pyruvate as substrate assessed as NADH oxidation at 125 uM measured every 30 secs for 5 mins by spectrophotometric analysis relative to control
[2] = target: T1, L-lactate dehydrogenase A chain; assay: Competitive inhibition of human LDHA4 using 0.025 to 1 mM sodium pyruvate as substrate measured every 30 secs for 5 mins by Lineweaver-Burk plot analysis in presence of NADH
[3] = target: T1, L-lactate dehydrogenase A chain; assay: Competitive inhibition of human LDHA4 using sodium pyruvate as substrate measured every 30 secs for 5 mins by Lineweaver-Burk plot analysis in presence of 12.5 to 150 uM NADH
Homo sapiens = species: Homo sapiens; assay: Inhibition of human LDH1 using sodium pyruvate as substrate assessed as NADH oxidation at 125 uM measured every 30 secs for 5 mins by spectrophotometric analysis relative to control
[4] = Competitive inhibition of human LDH1 using sodium pyruvate as substrate measured every 30 secs for 5 mins by Lineweaver-Burk plot analysis in presence of 12.5 to 150 uM NADH

SMILES | inhibition [1] | Ki [2] | Ki [3] | inhibition (Homo sapiens) | Ki [4]
O=C(O)c1cc2c(-n3cc(-c4ccccc4)nn3)cccc2n1O | 73% | 44 µM | 28 µM | < 3% | –
O=C(O)c1cccc(-c2cn(-c3ccc4cc(C(=O)O)n(O)c4c3)nn2)c1 | 65% | 45 µM | 50 µM | < 3% | –
CCCCc1cn(-c2cccc3c2cc(C(=O)O)n3O)nn1 | < 15% | – | – | – | –
O=C(O)c1cccc(-c2cn(-c3ccc4c(c3)cc(C(=O)O)n4O)nn2)c1 | < 15% | – | – | – | –
O=C(O)c1cccc(-c2cn(-c3cccc4c3cc(C(=O)O)n4O)nn2)c1 | 60% | 86 µM | 57 µM | 60% | 89 µM
O=C(O)c1cc2c(-n3cc(CCO)nn3)cccc2n1O | < 15% | – | – | – | –

Continued, values first:

inhibition [1] | Ki [2] | Ki [3] | inhibition (Homo sapiens) | Ki [4] | SMILES
< 15% | – | – | – | – | O=C(O)c1cc2cc(-n3cc(-c4ccccc4)nn3)ccc2n1O
83% | 37 µM | 20 µM | 32% | – | O=C(O)c1cc2ccc(-n3cc(CCCc4cn(-c5ccc6cc(C(=O)O)n(O)c6c5)nn4)nn3)cc2n1O
